Source: US20230137849A1, “USE OF A COMPOUND OF THE DIURETICS CLASS FOR TREATING CANCER” (AZELEAD, priority 2017, published 2023)

How the values were obtained:
MDA-MB-231 cells = test: Cytotoxicity potentiation test: MTT cell viability of MDA-MB-231 cells, doxorubicin +/- althiazide; format: cell-based, human
Protocol: The cell cultures are carried out on human breast cancer epithelial cell lines MDA-MB-231 (HTB-26™), resulting from metastases present in a pleural effusion of a patient with a mammary adenocarcinoma. This line is used as a triple negative cancer cell model (no expression of ER-type nuclear estrogen receptors, nuclear progesterone receptors or overexpression of the oncogene encoding HER2 protein (Human Epidermal Growth factor Receptor-2).
The cell viability is determined via the IC50 index, measured by the MTT technique (2-(4,5-dimethyl-2-thiazolyl)-3,5-diphenyl-2H-tetrazolium bromide) (Mosmann, 1983). This colorimetric test is based on the reduction of yellow tetrazolium salts into insoluble purple formazan crystals in aqueous solution. The spectrophotometric measurement of the absorbance at 570 nm is directly proportional to the number of viable cells
The cells were seeded in 96-well plates at a density of 25,000 cells per well. After 24 h of culture at 37° C., 5% CO2 and 1% O2, the medium was renewed and supplemented with increasing doses of doxorubicin+/−althiazide. Cells were incubated for 24 h at 37° C., 5% CO2 and 1% O2. The MDA-MB-231 cells were washed and then incubated for 1 hour at 37° C. with 100 μl of a 0.5 mg/ml MTT solution prepared in culture medium. The formazan crystals were dissolved in […] and the absorbance measured at 570 nm using the Tecan Sunrise spectrophotometer. The IC50 was determined using the Graphpad Prism 5.0 software. The treatments were carried out in triplicate and the manipulation was carried out 5 times.
The tests are carried out in cell culture in 96-well plates, on the cell line MDA-MB-231. The MDA-MB-231 cells are seeded in 96-well plates at a density of 10,000 cells and incubated 24 h at 37° C., 5% CO2 and 1% O2. The medium is then renewed and added with increasing concentrations of doxorubicin+/−100 μM althiazide. The cells are incubated for an additional 24 hours at 37° C., 5% CO2 and 1% O2. Treatments were made in triplicas and the experiment was repeated 5 times.
A cell viability test is then performed according to the method described in Materials and methods.
Results are normalized to the control condition (FIG. 12)

[1] = Solubilization of althiazide and enantiomers without DMSO; format: physicochemical; details: no DMSO
Protocol: Solubilization of althiazide and enantiomers was achieved by solubilization in a solvent of 95% 1M Tris pH 10.8 and supplemented with 5% pure ethanol.
Althiazide and enantiomers are resuspended at a concentration of 2 mg/ml. Each of the solutions is vortexed for 30 seconds and then placed in an ultrasound bath for a sonication of 5min; this operation is repeated once. The dissolution is complete despite the absence of DMSO.
The solubilization of althiazide and enantiomers was also obtained by solubilization in a solution consisting of a mixture of 3.7% of NaHCO3, 0.2M and 21% of Na2CO3 0.2M at pH 10.6 and supplemented with pure water. Althiazide and enantiomers are resuspended at a concentration of 2.5 mg/ml. Each of the solutions is vortexed for 30 seconds and then placed in an ultrasound bath for a sonication of 1 min. The dissolution is complete despite the absence of DMSO.

Question: Which results are given for `C=CCSCC1Nc2cc(Cl)c(S(N)(=O)=O)cc2S(=O)(=O)N1` (racemic) [althiazide]?
Answer: reduction of the IC50 of doxorubicin (MDA-MB-231 cells; 100 μM althiazide added to doxorubicin, 24 h, 1% O2): 45%; increase of the effects of doxorubicin (MDA-MB-231 cells; 100 μM althiazide, doxorubicin between 25 and 2.5 μM, FIG. 12): about 15%; dissolution ([1]; 2 mg/ml in 95% 1M Tris pH 10.8 + 5% pure ethanol, vortex and sonication): complete; dissolution ([1]; 2.5 mg/ml in 3.7% NaHCO3 0.2M + 21% Na2CO3 0.2M at pH 10.6 and pure water): complete
